Assay [1] has as its system guinea pig trachea smooth muscle. As to the kind of experiment: Bronchodilator (relaxant) effect on isolated guinea pig tracheal rings. Format: cell-based. Conditions: for Relative Potency: guinea pig trachea, relative to VIP = 100%; for EC50: guinea pig tracheal rings, relaxation as % of maximum response to VIP 10^-6 M, three tissues pooled, linear regression, read-out: EC50 (M), agonist activity, bronchodilator effect. The source says: The bronchodilatory effect of VIP analogs was studied in a model utilizing guinea pig trachea. Wasserman, M. A. et al. "Comparative In Vitro Tracheal Relaxant Effects of Porcine and Hen VIP" in Vasoactive Intestinal Peptide ed. Said, S.I., Raven Press (New York, 1982).
All tissues were taken from male albino guinea pigs weighing 400-600 g, anesthetized with urethane 2 g/kg i.p. After exsanguination the trachea was removed and divided into four ring segments (3 mm length). Each ring was suspended by two 30 guage stainless steel wires in a 10 ml jacket tissue bath and attached via 4-0 silk thread to a Grass force displacement transducer (model FT03C, Grass Instrument Co., Quincy, MA), for isometric recording of tension. The smooth muscle was bathed in modified Krebs solution of the following composition: NaCl, 120 mM; KCl, 4.7 mM; CaCl2, 2.5 mM; MgSO4.7H2 O; 1.2 mM; NaHCO3, 25 mM; KH2 PO4 monobasic, 1.2 mM; and dextrose, 10 mM. Tissue baths were maintained at 37.5° C. and constantly bubbled with 95% O2 and 5% CO2. Responses were recorded on an 8 channel and 4 channel Hewlett-Packard (model 7702B and 7754A, respectively) recorder (Hewlett Packard, Paramus, NJ). Tracheal rings were placed under a resting tension of 1.5 g which was determined to be at or near optimal in preliminary experiments. Frequent readjustments of tension were required during the 60 min. stabilization period which followed. Tissues were rinsed at 15 min. intervals.
(§1) Cumulative concentration response curves were obtained for each tissue by successive […] in the bath concentration of VIP or potential VIP agonists according to the method of VanRossum J. M., Arch. Int Pharmacodyn, 143, 299-330 (1963). Only one cummulative dose response curve was obtained on a single piece of tissue. To minimize variability between tissues, relaxant responses are expressed as a percentage of the maximum response obtainable to VIP (10^-6 M=100%) added at the end of the concentration response curve. Responses obtained from three tissues were pooled and EC50 values were determined by linear regression.

The test system of assay [2] is Human Bronchial Smooth Muscle. Put plainly: Relaxation of isolated human bronchial smooth muscle rings. Format: cell-based. The note with it: for Rel. Potency: human bronchial smooth muscle, relative to VIP (1-28) = 100%. The method, then:
Human bronchial smooth muscle or intra-pulmonary arteries were obtained from surgical section or autopsy from Overlook Hospital, Summit, N.J. Airway or vascular rings were suspended by two 30 gauge stainless steel wires in a 10 ml jacket tissue bath and attached via 4-0 silk thread to a Grass forcer displacement transducer (model FT030C, Grass Instrument Co., Quincy, MA), for isometric recording of tension. The smooth muscle was bathed in modified Kreb's solution of the following composition: NaCl, 120 mM; KCl, 4.7 mM; CaCL2, 2.5 mM; MgSO4.7H2 O; 1.2 mM; NaHCO3, 25 mM; KH2 PO4 monobasic, 1.2 mM; and dextrose, 10 mM. Tissue baths were maintained at 37.5° C. and constantly bubbled with 95% O2 and 5% CO2. Responses were recorded on a 8 channel and 4 channel Hewlett-Packard (model 7702B and 7754A, respectively) recorder (Hewlett Packard, Paramus, NJ). All tissues were placed under a resting tension (airway, 1.5 g; vascular, 1 g) which was determined to be near optimal in preliminary experiments. Frequent readjustments of tension were required during the 120-180 min. stabilization period which followed. Tissues were rinsed at 15 min. intervals. Vascular tissues were primed once with phenylephrine (10^-5 M) and washed for an additional hour. Steady state contractions of vacular tissues were obtained with phenylephrine (10^-5 M) while airway tissues were precontracted with histamine (3×10^-4 M).
as §1, with “noted above.” for “J. M., Arch. Int Pharmacodyn, 143, 299-330 (1963).”, “cumulative” for “cummulative”, “were” for “are”, “papaverine (vascular, 10^-4 M=100%) or isoproterenol (airway, 10^-4” for “VIP (10^-6”, “curve. […]” for “curve.”, “four” for “three”

Peptide text beside a SMILES is read from it.

The EC50 is the midpoint of the concentration-response curve.

Take `CCCC[C@H](NC(=O)[C@H](CCC(N)=O)NC(=O)[C@H](CCCCN)NC(=O)[C@H](CCCNC(=N)N)NC(=O)[C@H](CC(C)C)NC(=O)[C@H](CCCNC(=N)N)NC(=O)[C@@H](NC(=O)[C@H](Cc1ccc(O)cc1)NC(=O)[C@H](CC(N)=O)NC(=O)[C@H](CC(=O)O)NC(=O)[C@@H](NC(=O)[C@H](Cc1ccccc1)NC(=O)[C@@H](NC(=O)[C@H](C)NC(=O)[C@H](CC(=O)O)NC(=O)[C@H](CO)NC(=O)[C@H](Cc1c[nH]cn1)NC(C)=O)C(C)C)[C@@H](C)O)[C@@H](C)O)C(=O)N[C@@H](C)C(=O)N[C@H](C(=O)N[C@@H](CCCCN)C(=O)N[C@@H](CCCCN)C(=O)N[C@@H](Cc1ccc(O)cc1)C(=O)N[C@@H](CC(C)C)C(=O)N[C@@H](CC(N)=O)C(=O)N[C@@H](CO)C(=O)N[C@H](C(=O)N[C@@H](CC(C)C)C(=O)N[C@@H](CC(N)=O)C(N)=O)[C@@H](C)CC)C(C)C` [Ac--(Nle^17)--VIP, Ac-(Nle^17)VIP]: in assay [1], the “Relative Potency” value is 111% and the EC50 turned out to be 9e-09 M. Besides, the “Rel. Potency” value in assay [2] is given as 2800%.
Consider `CCCC[C@H](NC(=O)[C@H](CCC(N)=O)NC(=O)[C@H](CCCCN)NC(=O)[C@H](CCCNC(=N)N)NC(=O)[C@H](CC(C)C)NC(=O)[C@H](CCCN)NC(=O)[C@@H](NC(=O)[C@H](Cc1ccc(O)cc1)NC(=O)[C@H](CC(N)=O)NC(=O)[C@H](CC(=O)O)NC(=O)[C@@H](NC(=O)[C@H](Cc1ccccc1)NC(=O)[C@@H](NC(=O)[C@H](C)NC(=O)[C@H](CC(=O)O)NC(=O)[C@H](CO)NC(=O)[C@@H](N)Cc1c[nH]cn1)C(C)C)[C@@H](C)O)[C@@H](C)O)C(=O)N[C@@H](C)C(=O)N[C@H](C(=O)N[C@@H](CCCCN)C(=O)N[C@@H](CCCCN)C(=O)N[C@@H](Cc1ccc(O)cc1)C(=O)N[C@@H](CC(C)C)C(=O)N[C@@H](CC(N)=O)C(=O)N[C@@H](CO)C(=O)N[C@H](C(=O)N[C@@H](CC(C)C)C(=O)N[C@@H](CC(N)=O)C(N)=O)[C@@H](C)CC)C(C)C` [(Orn^12, Nle^17)--VIP, (Orn^12, Nle^17)VIP], for which, in assay [1], the “Relative Potency” value is on record as 200% and the EC50 amounted to 5e-09 M. Besides, the “Rel. Potency” value in assay [2] turned out to be 195%.
As for `CC[C@H](C)[C@H](NC(=O)[C@H](CO)NC(=O)[C@H](CC(N)=O)NC(=O)[C@H](CC(C)C)NC(=O)[C@H](Cc1ccc(O)cc1)NC(=O)[C@H](CCCCN)NC(=O)[C@H](CCCCN)NC(=O)[C@@H](NC(=O)[C@H](C)NC(=O)[C@H](CCSC)NC(=O)[C@H](CCC(N)=O)NC(=O)[C@H](CCCCN)NC(=O)[C@H](CCCNC(=N)N)NC(=O)[C@H](CC(C)C)NC(=O)[C@H](CCCNC(=N)N)NC(=O)[C@@H](NC(=O)[C@H](Cc1ccc(O)cc1)NC(=O)[C@H](CC(N)=O)NC(=O)[C@H](CC(=O)O)NC(=O)[C@@H](NC(=O)[C@H](Cc1ccccc1)NC(=O)[C@@H](NC(=O)[C@H](C)NC(=O)[C@H](CC(=O)O)NC(=O)[C@H](CO)NC(=O)[C@@H](N)Cc1c[nH]cn1)C(C)C)[C@@H](C)O)[C@@H](C)O)C(C)C)C(=O)N[C@@H](CC(C)C)C(=O)N[C@@H](CC(N)=O)C(N)=O` [VIP, Vasoactive intestinal peptide], in assay [1], the “Relative Potency” value was determined as 100% and the EC50 turned out to be 1e-08 M. In addition, the “Rel. Potency” value in assay [2] is listed as 100%. Also, the “Bronchodilator / relaxant activity (in words)” value in assay [2] (human in vitro tissue, summary of Table II) is on record as “weak relaxant”.
For the molecule `CCCC[C@H](NC(=O)[C@H](CCC(N)=O)NC(=O)[C@H](CCCCN)NC(=O)[C@H](CCCNC(=N)N)NC(=O)[C@H](CC(C)C)NC(=O)[C@H](CCCCN)NC(=O)[C@@H](NC(=O)[C@H](Cc1ccc(O)cc1)NC(=O)[C@H](CC(N)=O)NC(=O)[C@H](CC(=O)O)NC(=O)[C@@H](NC(=O)[C@H](Cc1ccccc1)NC(=O)[C@@H](NC(=O)[C@H](C)NC(=O)[C@H](CC(=O)O)NC(=O)[C@H](CO)NC(=O)[C@@H](N)Cc1c[nH]cn1)C(C)C)[C@@H](C)O)[C@@H](C)O)C(=O)N[C@@H](C)C(=O)N[C@H](C(=O)N[C@@H](CCCCN)C(=O)N[C@@H](CCCCN)C(=O)N[C@@H](Cc1ccc(O)cc1)C(=O)N[C@@H](CC(C)C)C(=O)N[C@@H](CC(N)=O)C(=O)N[C@@H](CO)C(=O)N[C@H](C(=O)N[C@@H](CC(C)C)C(=O)N[C@@H](CC(N)=O)C(N)=O)[C@@H](C)CC)C(C)C` [(Lys^12, Nle^17)--VIP, (Lys^12, Nle^17)-VIP] (HELM PEPTIDE1{H.S.D.A.V.F.T.D.N.Y.T.K.L.R.K.Q.[Nle].A.V.K.K.Y.L.N.S.I.L.N.[am]}$$$$V2.0), in assay [1], the “Relative Potency” value is given as 263% and the EC50 was determined as 3.8e-09 M. Besides, the “Rel. Potency” value in assay [2] stood at 165%.
As to `CCCC[C@H](NC(=O)[C@H](CCC(N)=O)NC(=O)[C@H](CCCCN)NC(=O)[C@H](CCCNC(=N)N)NC(=O)[C@H](CC(C)C)NC(=O)[C@H](CCCNC(=N)N)NC(=O)[C@@H](NC(=O)[C@H](Cc1ccc(O)cc1)NC(=O)[C@H](CC(N)=O)NC(=O)[C@H](CC(=O)O)NC(=O)[C@@H](NC(=O)[C@H](Cc1ccccc1)NC(=O)[C@@H](NC(=O)[C@H](C)NC(=O)[C@H](CC(=O)O)NC(=O)[C@H](CO)NC(=O)[C@@H](N)Cc1c[nH]cn1)C(C)C)[C@@H](C)O)[C@@H](C)O)C(=O)N[C@@H](C)C(=O)N[C@H](C(=O)N[C@@H](CCCCN)C(=O)N[C@@H](CCCCN)C(=O)N[C@@H](Cc1ccc(O)cc1)C(=O)N[C@@H](CC(C)C)C(=O)N[C@@H](CC(N)=O)C(=O)N[C@@H](CO)C(=O)N[C@H](C(=O)N[C@@H](CC(C)C)C(=O)N[C@@H](CC(N)=O)C(N)=O)[C@@H](C)CC)C(C)C` [(Nle^17)--VIP, (Nle^17)VIP], in assay [1], the “Relative Potency” value is recorded as 156% and the EC50 worked out at 6.4e-09 M. The “Rel. Potency” value in assay [2] is reported as 215%.

The values are drawn from patent US4605641A, “Synthetic vasoactive intestinal peptide analogs” (Hoffmann-La Roche Inc., priority 1984, dated 1986).
